Measurements: EP2987482A1 (Santa Farma Ilaç Sanayi A.S., priority 2014, dated 2016)

Tests used:
[1] = pH of media after dissolving the composition in water; assay type: physicochemical; conditions: magnetic stirrer for 3 minutes
[2] = cited from earlier work

4-[3,5-bis(2-hydroxyphenyl)-[1,2,4]triazol-1-yl]benzoic acid [deferasirox]
pH of media ([1]; composition with 500 mg deferasirox and 40 mg sodium carbonate): 8.13 | pH of media ([1]; composition with 500 mg deferasirox and 60 mg sodium carbonate): 8.33 | pH of media ([1]; composition with 500 mg deferasirox and 80 mg sodium carbonate): 8.44 | pH of media ([1]; composition with 500 mg deferasirox and 100 mg sodium carbonate): 8.65 | pH of media ([1]; composition with 500 mg deferasirox and 120 mg sodium carbonate): 8.77 | pH of media ([1]; composition with 500 mg deferasirox and 140 mg sodium carbonate): 8.84 | pH of media ([1]; composition with 500 mg deferasirox and 160 mg sodium carbonate): 8.91 | permeability [2]: good permeability
